How the values were obtained:
[1] = In-vitro mouse microsomal stability; assay type: in vitro ADME; details: mouse microsomes, 1 microMolar compound, at T = 60 minutes
Description: Human and mouse microsomal stability was determined for select compounds following the method of Houston (Houston, J. B; Biochem. Pharmacol. 47, (1994),1469).
1 μM concentration of compound and separate human and mouse microsomes (0.3 mg/mL, BD bioscience) were used in the in-vitro assay. To ensure proper energy supply for microsomal degradation of compound, an energy regenerating system comprised of 100 mM potassium phosphate, 2 mM NADPH, 3 mM MgCl2, pH=7.4. and the microsomal protein is added to each sample and the resulting suspension is then incubated in duplicate for 60 min at 37° C. in a rotary shaker. A control is run for each test agent in duplicate omitting NADPH to detect NADPH-free degradation. At T=0 and T=60 min., an aliquot is removed from each experimental and control reaction and then mixed with an equal volume of ice-cold Stop Solution (consisting of 0.3% acetic acid in acetonitrile containing haloperidol and diclofenac as internal standards). Stopped reactions are then incubated for at least ten minutes at −20° C., and an additional volume of water is then added. The samples are then centrifuged to remove precipitated protein, and the supernatants are then analyzed by LC-MS/MS to determine the percentage of compound remaining. The LC-MS/MS system used was an Agilent 6410 mass spectrometer coupled with an Agilent 1200 HPLC and a CTC PAL chilled autosampler, all controlled by MassHunter software (Agilent), or an ABI2000 mass spectrometer coupled with an Agilent 1100 HPLC and a CTC PAL chilled autosampler, all controlled by Analyst software (ABI). After separation on a C18 reverse phase HPLC column (Agilent, Waters, or equivalent) using an acetonitrile-water gradient system, peaks were analyzed by mass spectrometry (MS) using ESI ionization in MRM mode.

[2] = system: spinal nerve ligation (SNL) mouse model; experiment: Intraperitoneal (i.p.) SNL-mouse model of neuropathic pain, von Frey mechanical allodynia; assay type: in vivo
Excerpt: (§1) To measure the neuropathic pain inhibiting affects of the MMP inhibitors of the present invention, the spinal nerve ligation (SNL) mouse model was run on a select number of compounds. This model which began with the work of Bennet and coworkers (Bennet, G. J. et al. Pain, 33, (1988), 87-107) and was optimized by Kim and Chung (Kim, S. H.; Chung, J. M. Pain, 50, (1992), 355-363) entails first, under magnification, the removal of one-third of the transverse process and then identifying and then dissecting free the L5 spinal nerve from the adjacent L4 spinal nerve in the mouse. The L5 spinal nerve is then tightly ligated using 6.0 silk suture. The nerve injury leads to hyperalgesia which manifests itself by enhanced responses to mechanical, heat and/or cooling stimuli. In this case, mechanical hyperalgesia is tested via Von Frey monofilaments in which filaments of varying thicknesses and bending force are individually applied to the plantar surface of the foot of the mouse. The threshold force necessary for paw withdrawal decreases dramatically after the nerve surgery. Potent pain inhibitors will reverse this affect resulting in greater force needing to be applied to cause the rodent paw to withdrawal.
Tactile Allodynia Test. Mechanical allodynia was measured using the calibrated von Frey filaments (Semmes-Weinstein monofilaments; Stoelting, Wood Dale, Ill., U.S.A.). The plantar surface of the left injured paw of each animal was tested as described by Chaplan et al. (Journal of Neuroscience Methods, 53, (1994), 55-63). The Fifty percent paw withdrawal threshold response was determined by sequentially increasing or decreasing the stimulus strength according to the “up-down method” of Dixon (Annual Review Pharmacology Toxicology, 20, (1980), 441-462). For mice, […] von Frey filaments were used, with approximately equal logarithmic incremental bending forces (von Frey number: 1.65, 2.36, 2.44, 2.83, 3.22, 3.61, 3.84, 4.08, and 4.17; equivalent to 0.005, 0.02, 0.03, 0.07, 0.17, 0.41, 0.69, 1.20, and 1.48 g force, respectively).
Prior to testing, each animal was placed in a suspended clear plastic chamber with a wire mesh bottom and acclimated for 15 minutes. Testing was initiated with the 0.07 g (handle marking of 2.83) applied perpendicularly to the plantar surface of the affected hind paw; each filament was applied with enough pressure to cause a buckle effect. The absence of a paw lifting/withdrawal response after 6 s prompted the use of the next higher weight filament. Paw withdrawal, indicating a positive response, prompted the use of a weaker filament. After the initial positive response (i.e., paw withdrawal), the testing continued for four additional measurements, and was used to calculate the response threshold. Four consecutive positive responses received a score of 0.001 g, and five consecutive negative responses (i.e., no paw withdrawal) received a score of 1.5 g.
Analyses for Tactile Allodynia Testing. The 50% paw withdrawal threshold was calculated (PWT; Luo and Calcutt, J. Pharmacology Experimental Therapeutics, 303(3), (2002), 1199-1205; Chaplan et al. Journal of Neuroscience Methods, 53, (1994), 55-63) using the formula: 10(Xf+κδ)/10,000 where Xf is the final von Frey filament used (log units), κ is a value that analyzes the response pattern (taken from the table published by Chaplan et al., 1994), and δ is the mean difference between stimuli (log units).
Except for the mode of administration, number of mice/group and the number of injections and amount of compound per injection, the rest of the study was done in the same manner (in regards to the surgeries and tactile allodynia testing and analysis) as Experiment 110. 3.2 mg of each of the MMP inhibitors #5 and #118 were dissolved in 320 microliters of DMSO. To the solution was then added 32 microliters of Tween 80, followed by 2850 microliters of phosphate buffered saline (PBS). This gave a final concentration of 10% DMSO, 1% Tween and 1 mg/ml compound. […]

[3] = system: spinal nerve ligation (SNL) mouse model; experiment: Intrathecal (i.t.) SNL-mouse model of neuropathic pain, von Frey mechanical allodynia; assay type: in vivo, FVB male mice
Excerpt: as §1
Following preoperative baseline (Day −2) paw threshold measurement, FVB male mice were subjected to SNL injury (Day −1). The next day (Day 0) after SNL surgery, the animals were tested for post-operative baseline threshold measurements for mechanical allodynia; and the animals were then randomly assigned to one of 3 treatment groups (see Table 9). Over the course of the study, paw withdrawal threshold of these animals was measured in response to mechanical stimulation using the von Frey Monofilament Test.
To avoid systemic effects of the MMP inhibitors, the MMP inhibitors of the present invention were delivered into the cerebral spinal fluid (CSF) space around lumbosacral spinal cord via intrathecal (i.t.) administration, with the idea of targeting MMPs in the DRG, spinal cord, and spinal CSF. Intrathecal MMP inhibitor administration could then target not only spinal cord cells but also DRG cells. Each intrathecal (i.t.) injection was carried out according to the technique of Hylden and Wilcox (Hylden J L, Wilcox G L. Eur. J. Pharmacol., 67, (1980), 313-6) 5.2 mg of each of the MMP inhibitors were first dissolved in 140 microliters of DMSO and then put into 1260 microliters of 0.5% hydroxypropyl cellulose (HPC) in water to make a fine suspension composed of compound in 10% DMSO-0.5% hydroxypropyl cellulose. 10 microliters of the mixture was injected into the intrathecal space of male FVB mice (weighing 22-25 grams each and obtained from the Jackson Laboratories, Bar Harbor, Me.), by lumbar puncture in a volume of 10 μl/mouse using a Hamilton microsyringe via a 30 gauge needle inserted between lumbar vertebrae 5 and 6. In brief, each animal was held firmly by the pelvic girdle in one hand, while the needle was inserted into the tissue on the right side of the L5 or L6 spinous process. The needle was moved forward and slipped into the groove between the spinous process and transverse process and gently moved forward to the intervertebral space at ˜10° angle. As the needle was inserted (˜0.5 cm) within the vertebral column a tail flick was evident, and the solution was then injected.
Tactile Allodynia Test. Mechanical allodynia was measured using the calibrated von Frey filaments (Semmes-Weinstein monofilaments; Stoelting, Wood Dale, Ill., U.S.A.). The plantar surface of the left injured paw of each animal was tested as described by Chaplan et al. (Journal of Neuroscience Methods, 53, (1994), 55-63). The Fifty percent paw withdrawal threshold response was determined by sequentially increasing or decreasing the stimulus strength according to the “up-down method” of Dixon (Annual Review Pharmacology Toxicology, 20, (1980), 441-462). […]

mechanical nociception = details: in vivo; cited from earlier work
humans = humans (S-3304: animals or man); cited from earlier work
rat formalin test = details: cited from earlier work
MMP-8 = MMP-8 (Homo sapiens, UniProt P22894); details: cited from earlier work
MMP-9 = MMP-9 (Homo sapiens, UniProt P14780); details: cited from earlier work
MMP-12 = MMP-12 (Homo sapiens, UniProt P39900); details: cited from earlier work
MMP-13 = MMP-13 (Homo sapiens, UniProt P45452); details: cited from earlier work
MMP-3 = MMP-3 (Homo sapiens, UniProt P08254); details: cited from earlier work
MMP-7 = target: T1, MMP-7 (Homo sapiens, UniProt P09237); details: cited from earlier work
T1 sequence (P09237 95-267): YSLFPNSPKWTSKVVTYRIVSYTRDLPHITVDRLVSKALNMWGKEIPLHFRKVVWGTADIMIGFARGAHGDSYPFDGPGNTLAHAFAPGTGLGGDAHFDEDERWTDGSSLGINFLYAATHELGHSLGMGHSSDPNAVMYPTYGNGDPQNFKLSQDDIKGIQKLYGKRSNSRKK

MMP-2 = target: T2, MMP-2 (Homo sapiens, UniProt P08253); details: cited from earlier work
T2 sequence (P08253 110-660): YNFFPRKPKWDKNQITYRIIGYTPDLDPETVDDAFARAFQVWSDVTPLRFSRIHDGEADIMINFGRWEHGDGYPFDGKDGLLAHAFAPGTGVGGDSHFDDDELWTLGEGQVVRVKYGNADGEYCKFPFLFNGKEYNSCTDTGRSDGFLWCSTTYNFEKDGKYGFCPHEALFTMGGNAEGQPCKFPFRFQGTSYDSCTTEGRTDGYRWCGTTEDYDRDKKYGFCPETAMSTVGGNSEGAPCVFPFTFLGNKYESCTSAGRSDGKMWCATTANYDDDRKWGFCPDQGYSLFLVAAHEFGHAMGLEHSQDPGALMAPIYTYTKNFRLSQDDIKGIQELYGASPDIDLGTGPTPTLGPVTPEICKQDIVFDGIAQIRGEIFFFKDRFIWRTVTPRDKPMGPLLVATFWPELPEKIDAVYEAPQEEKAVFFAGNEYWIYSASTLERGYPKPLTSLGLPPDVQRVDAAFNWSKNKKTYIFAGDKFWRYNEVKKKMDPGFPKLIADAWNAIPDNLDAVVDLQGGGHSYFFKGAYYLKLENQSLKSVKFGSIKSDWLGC

[4] = system: L5 spinal nerve ligation (SNL) neuropathic pain model; details: in vivo; cited from earlier work
[5] = i.p. 100 μl/mouse daily (approx. 3.3 mg/Kg), day 1-5

Sequence of MMP-9 (P14780 94-707, species assumed): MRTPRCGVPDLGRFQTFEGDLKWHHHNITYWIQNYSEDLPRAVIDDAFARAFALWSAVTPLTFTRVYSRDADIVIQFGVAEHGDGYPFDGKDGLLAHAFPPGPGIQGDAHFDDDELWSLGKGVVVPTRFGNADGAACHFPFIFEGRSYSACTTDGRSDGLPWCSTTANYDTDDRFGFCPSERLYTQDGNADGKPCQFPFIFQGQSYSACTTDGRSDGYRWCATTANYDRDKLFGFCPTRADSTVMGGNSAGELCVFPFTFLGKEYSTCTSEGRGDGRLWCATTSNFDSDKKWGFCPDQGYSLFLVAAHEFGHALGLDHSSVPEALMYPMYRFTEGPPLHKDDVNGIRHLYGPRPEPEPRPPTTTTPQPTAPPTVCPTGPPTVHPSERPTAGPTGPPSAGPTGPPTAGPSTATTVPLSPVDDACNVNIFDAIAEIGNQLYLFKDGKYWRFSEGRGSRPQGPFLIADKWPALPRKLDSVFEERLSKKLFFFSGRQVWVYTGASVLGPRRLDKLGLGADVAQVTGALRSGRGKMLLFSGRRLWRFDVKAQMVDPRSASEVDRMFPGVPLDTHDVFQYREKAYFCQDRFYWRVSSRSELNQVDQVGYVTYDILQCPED
Sequence of MMP-3 (P08254 100-477, species assumed): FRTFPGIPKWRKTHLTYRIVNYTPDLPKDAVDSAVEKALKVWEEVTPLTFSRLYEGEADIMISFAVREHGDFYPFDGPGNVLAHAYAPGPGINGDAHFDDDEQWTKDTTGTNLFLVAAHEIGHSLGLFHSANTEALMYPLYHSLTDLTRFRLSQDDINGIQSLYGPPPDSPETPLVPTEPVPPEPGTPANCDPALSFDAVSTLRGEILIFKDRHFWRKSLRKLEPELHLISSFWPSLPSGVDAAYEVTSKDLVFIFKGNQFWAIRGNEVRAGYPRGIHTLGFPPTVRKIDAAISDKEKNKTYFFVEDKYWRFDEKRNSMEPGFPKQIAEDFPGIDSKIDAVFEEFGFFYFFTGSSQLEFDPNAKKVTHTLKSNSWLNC
Sequence of MMP-12 (P39900 106-470, species assumed): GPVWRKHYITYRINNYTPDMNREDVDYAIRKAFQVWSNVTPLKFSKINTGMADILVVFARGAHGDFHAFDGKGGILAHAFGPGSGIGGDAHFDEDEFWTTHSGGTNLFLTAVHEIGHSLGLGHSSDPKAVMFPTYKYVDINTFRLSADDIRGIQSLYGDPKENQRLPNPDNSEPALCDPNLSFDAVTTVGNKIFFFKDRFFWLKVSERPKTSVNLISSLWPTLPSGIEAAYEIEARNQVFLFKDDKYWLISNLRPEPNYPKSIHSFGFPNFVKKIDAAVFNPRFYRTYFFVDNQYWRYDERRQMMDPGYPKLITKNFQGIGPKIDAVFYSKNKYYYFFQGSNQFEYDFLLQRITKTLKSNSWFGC
Sequence of MMP-8 (P22894 101-467, species assumed): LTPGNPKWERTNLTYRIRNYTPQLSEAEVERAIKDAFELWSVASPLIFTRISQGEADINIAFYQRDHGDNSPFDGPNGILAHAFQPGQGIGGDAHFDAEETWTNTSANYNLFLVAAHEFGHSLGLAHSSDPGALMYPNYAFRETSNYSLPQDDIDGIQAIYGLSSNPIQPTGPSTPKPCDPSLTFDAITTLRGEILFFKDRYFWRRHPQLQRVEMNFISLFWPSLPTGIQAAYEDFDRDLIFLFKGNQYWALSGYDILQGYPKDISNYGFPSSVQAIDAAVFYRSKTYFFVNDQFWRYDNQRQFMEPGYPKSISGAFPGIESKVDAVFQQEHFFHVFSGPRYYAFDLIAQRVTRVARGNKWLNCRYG

Compound: [2H]C([2H])([2H])c1ccc(C#Cc2ccc(S(=O)(=O)N[C@H](Cc3c[nH]c4ccccc34)C(=O)O)s2)cc1 [Compound 118, (R)-3-(1H-Indol-3-yl)-2-[5-(4-trideuteromethyl-phenylethynyl)-thiophene-2-sulfonylamino]-propionic acid-(D3, 98%)]
- % Mean Remaining Parent with NADPH (%) ([1]; with NADPH): 85%
- % Mean Remaining Parent without NADPH (%) ([1]; without NADPH (control)): 91%
- Paw withdrawal threshold, mean, Day 1 [2, 5]: 0.170 grams
- Paw withdrawal threshold, mean, Day 2 [2, 5]: 0.350 grams
- Paw withdrawal threshold, mean, Day 5 [2, 5]: 1.470 grams
- Paw withdrawal threshold, mean, Day 6 [2, 5]: 0.867 grams
- Paw withdrawal threshold, mean, Day 7 [2, 5]: 0.250 grams
- Reversal of mechanical allodynia ([2]; i.p. administration, by day 5): complete reversal of mechanical alodynia
- Paw withdrawal threshold, mean, Day 0 Postoperative Baseline ([2]; i.p. study, baseline before treatment): 0.096 grams
- Paw withdrawal threshold, mean, Day 5 ([3]; i.t. 10 μl/mouse daily day 1-6): 0.320 grams
- Paw withdrawal threshold, mean, Day 7 ([3]; i.t. 10 μl/mouse daily day 1-6): 1.024 grams
- Paw withdrawal threshold, mean, Day 1 ([3]; i.t. 10 μl/mouse daily day 1-6, testing 2 hr after first i.t. injection): 0.321 grams
- Reversal of allodynia ([3]; i.t. administration, as compared to vehicle and compound #5): almost complete reversal of allodynia
- Paw withdrawal threshold, mean, Day 0 Postoperative Baseline ([3]; i.t. study, post operative injury baseline, before treatment): 0.077 grams
- Paw withdrawal threshold, mean, Day(-2) Pre-operative Baseline ([3]; i.t. study, testing prior to SNL injury, before treatment): 1.268 grams

Compound: CNC(=O)[C@H](Cc1c[nH]c2ccccc12)NC(=O)[C@@H](CC(=O)NO)CC(C)C [GM6001]
- Effect on mechanical nociception (mechanical nociception): attenuate mechanical nociception

Compound: CNC(=O)[C@@H](NC(=O)[C@H](CC(C)C)[C@H](O)C(=O)NO)C(C)(C)C [Marimastat]
- Musculoskeletal toxicities (humans): time-dependent and dose-dependent musculoskeletal toxicities (arthralgia, myalgia, tendinitis)

Compound: CCOCOC[C@H](C[C@H](C)C(=O)NO)NC(=O)c1ccc(Oc2ccccc2)cc1 [ONO-4817]
- Effect on the analgesic effect of intrathecal MMP-2 (Phase I agitation behavior) (rat formalin test; MMP-2 injected intrathecally): antagonized
- Effect on the rat formalin test when given alone (rat formalin test; inhibitor given alone): no affect
- Ki (MMP-8): 1.1 nM
- Ki (MMP-9): 2.1 nM
- Ki (MMP-12): 0.45 nM
- Ki (MMP-13): 1.1 nM
- Ki (MMP-3): 42 nM
- Ki (MMP-7): 2500 nM
- Ki (MMP-2): 0.73 nM

Compound: TIMP-1: endogenous matrix metalloproteinase inhibitor
- Effect on neuropathic pain in the SNL model [4]: suppressed neuropathic pain
